Measurements taken from patent publication US9505821B2, “ATAP peptides, nucleic acids encoding the same and associated methods of use” (Rutgers, The State University of New Jersey, priority 2006, dated 2016).

B1: FLAG-Bfl-1: FLAG-tagged full-length Bfl-1 (protein, UniProt Q16548 1-175, looked up)
chain: MTDCEFGYIYRLAQDYLQCVLQIPQPGSGPSKTSRVLQNVAFSVQKEVEKNLKSCLDNVNVVSVDTARTLFNQVMEKEFEDGIINWGRIVTIFAFEGILIKKLLRQQIAPDVDTYKEISYFVAEFIMNNTGEWIRQNGGWENGFVKKFEPKSGWMTFLEVTGKICEMLSLLKQYC
modifications: full-length FLAG tag

Columns and labels:
[1] = test system: mitochondria membrane isolated from BMK-D3 cells; test: in vitro cytochrome c release from isolated mitochondria; format: biochemical, mouse; conditions: synthetic peptide 100 μM, 1 hour at 37° C.
Procedure: Mitochondria-free cytosol was prepared as previously described (Ko et al., 2003a). Briefly, 24 hours after transfection, HEK293 cells were collected by scraping, washed twice with ice-cold PBS, suspended in […] extraction buffer (50 mM PIPES-KOH, pH 7.4, 200 mM mannitol, 70 mM sucrose, 50 mM KCl, 5 mM EGTA, 2 mM MgCl2, 1 mM dithiothreitol and protease inhibitors), and incubated on ice for 30 minutes. Cells were lysed by Dounce homogenization and homogenates were centrifuged at 100,000 g for 15 minutes at 4° C. Supernatants were harvested and 20 μg of protein was analyzed by western blotting using monoclonal anticytochrome c antibody. For in vitro analysis of cytochrome c release, heavy membranes enriched in mitochondria were isolated from BMK-D3 cells using a mitochondria fractionation kit (Active Motif) according to the instructions of the manufacturer. Isolated mitochondria were diluted to a concentration of 1 mg/ml in the extraction buffer and incubated with synthetic ATAP or mHR7 peptides (100 μM) or DMSO as control for 1 hour at 37° C. The reactions were then centrifuged at 13,000 g for 10 minutes and the resulting pellets and supernatants were analyzed by SDS-PAGE.

[2] = planar lipid bilayer reconstitution, electrophysiology
Procedure: The 29-mer ATAP peptide ([…]) (SEQ ID NO.: 36) corresponding to the C-terminus of Bfl1 and its mutant mHR7 (KFEP-KSGWMTFLQVTG-LICQMLSLLKQYC) (SEQ ID NO.: 50) were synthesized by Abgent (San Diego, Calif.) with 99% purity as measured by HPLC and mass spectrometry. The peptides were dissolved in DMSO to make a 10 mM stock. Phospholipids were purchased from Avanti Polar Lipids (Birmingham, Ala.). Electrophysiological analysis was performed as described (Lam et al., 1998; Ma et al., 1988). Lipid bilayer membranes were formed across an aperture of 200 μm diameter with a 1:1 mixture of bovine brain phosphatidylethanolamine and bovine brain phosphatidylserine dissolved in n-decane at a concentration of 50 mg/ml. The recording solutions contained: cis, 200 mM KCl and 10 mM HEPES-Tris (pH 7.4); trans, 50 mM NaCl, 10 mM HEPES-Tris (pH 7.4). 1 n1 of 10 mM peptides dissolved in DMSO were added into 900 n1 of cis solution and fused into the bilayer. Voltage manipulation and currents were measured using an Axopatch 200 A amplifier (Axon Instruments, Foster City, Calif.). Data analyses were preformed with pClamp and TIPS software.

E. coli = test: toxicity of bacterial expression; format: cell-based; conditions: data not shown
HEK293 cells [3] = test: β-galactosidase reporter assay of cell viability after co-transfection; format: cell-based; conditions: HEK293, 24 h after co-transfection, n=5
Procedure: (§1) Apoptotic cell death was monitored after transfection of expression plasmids into HEK293, HeLa, MCF-7 or BMK D3 cells. 2×10^5 cells were cultured in 35-mm wells for 24 hours in Dulbecco's modified Eagle's medium (DMEM) supplemented with 10% fetal bovine serum. Cells were transfected using the Lipofectamine 2000 reagent (Invitrogen), with 1 μg of the indicated expression plasmids and further cultured in the absence or presence of 50 μM of pan-caspase inhibitor, Q-VD-OPH (OPH, Enzyme Systems Products). For morphological assessment of apoptotic cell death, cells were plated onto LabTek II chamber slides (Nalgen Nunc International) at densities of 5×10^4 cells per well. 24 hours after transfection, cells were washed with phosphate-buffered saline (PBS) prior to fixation with 4% formaldehyde. […] Cell death was also measured by propidium iodide (PI) exclusion. […] Cells were observed and photographed with a fluorescence microscope at three different fields containing approximately 200 GFP-positive cells. GFP and PI double-positive cells were counted as dead cells. Quantitative analysis of cell viability was determined by _-galactosidase reporter assay according to the procedures as described (Chittenden et al., 1995; Wood and Newcomb, 2000). […] At 24 hours following transfection, cells were harvested and β-galactosidase activity was measured using β-Galactosidase Enzyme Assay System (Promega). […]

HEK293 cells [4] = test: cell death by propidium iodide (PI) staining / exclusion after transfection; format: cell-based; conditions: HEK293, 24 h after transfection
Procedure: as §1

Row | Molecule | cytochrome c release from isolated mitochondria [1] | changes in membrane conductance ([2]; peptide 11-44 μM, n=35) | reversal potential for currents ([2]; 200 mM KCl (cis) / 50 mM NaCl (trans)) | rupture of the lipid bilayer, time after addition of the peptide ([2]; peptide >22.2 μM, n>30) | toxicity of expression in E. coli (E. coli) | toxicity of expression in E. coli (E. coli; listed as Bfl-1 TA peptide) | β-galactosidase activity (HEK293 cells [3]) | cell death by PI staining (HEK293 cells [4])
1 | KFEP-KSGWMTFLQVTG-LICQMLSLLKQYC (KFEPKSGWMTFLEVTGLICEMLSLLKQYC; (1)..(29) K163L - ATAP; listed as Homo sapiens) [mHR7 peptide, synthetic mutant of the 29-mer ATAP peptide] | not observed | did not induce any notable changes in membrane conductance | – | – | – | – | – | –
2 | KFEPKSGWMTFLEVTGKICEMLSLLKQYC ((1)..(29) ATAP peptide derived from residues 147-175 of Bfl-1; listed as Homo sapiens) [29-mer amphipathic tail-anchoring peptide corresponding to the C-terminus of Bfl1 (a.a. 147-175)] | induced release of cytochrome c | – | ~−30 mV | ≤ 30 min | lysis of the cells | toxic to E. coli cell growth | – | –
3 | B1 | – | – | – | – | – | – | 1.11±0.06 fold over control | no toxic effect
